Test system: wheat
Assay: Field experiment 2, Zn impregnation on urea, wheat 2018 (Example 5)
Assay type: in vivo, wheat (SY 120)
Set-up: WG (weight of grains): unit not given here

SMILES: NC(N)=O [Urea 200]
- Yield (wheat grain yield, Pergamino 2018): 5136.4 kg ha^−1
- Dry M Z25 (initial dry matter) (wheat, Z25, Pergamino 2018): 2450.0
- Coverage and Intercep. Z65 (wheat, Z65, Pergamino 2018): 91.7
- NDVI GS 65 (Green seeker) (wheat, Z65, Pergamino 2018): 0.40
- Plant height (wheat, Z65, Pergamino 2018): 75.0 cm
- Spad Z65 (green intensity) (wheat, Z65, Pergamino 2018): 40.8 Spad units
- Vigor Z65 (1-5) (wheat, Z65, index 1 minimum 5 maximum): 3.9
- Plants m^−2 (number of emerged plants) (wheat, Zn impregnation on Urea, Pergamino 2018): 239.0 m^−2
- NG m^−2 (number of grains) (wheat, harvest, Pergamino 2018): 16410.1 m^−2
- WG (weight of grains) (wheat, harvest, Pergamino 2018): 31.3
